Columns and labels:
Assay in all cases: Bliss excess, mean over the matrix (fraction); higher = more synergy
[1] = test system: NOMO-1 (Acute Myeloid Leukemia)
How it was run: (§1)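 Bliss excess equals the observed combination effect minus the expected value EA + EB − EA·EB, where EA and EB are the effects of each agent alone. Combination Emax is the second-highest inhibition within the matrix. Inhibition was scaled from CellTiter-Glo 2.0 luminescence, with 0 set by vehicle wells and 1 by blank wells, after 72 hours of two-drug dosing of cells plated in 1536-well plates.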

[2] = test system: SLVL (B-Cell Non-Hodgkin's Lymphoma)
How it was run: as §1

[3] = test system: EFM-192A (Breast Carcinoma)
How it was run: as §1

[4] = test system: WSU-DLCL2 (B-Cell Non-Hodgkin's Lymphoma)
How it was run: as §1

[5] = test system: SK-MEL-1 (Melanoma)
How it was run: as §1

[6] = test system: YT (Other Blood Carcinomas)
How it was run: as §1

[7] = test system: SKN-3 (Head and Neck Carcinoma)
How it was run: as §1

[8] = test system: TYK-nu (Ovarian Carcinoma)
How it was run: as §1

[9] = test system: A172 (Glioblastoma)
How it was run: as §1

[10] = test system: HCT-116 (Colorectal Carcinoma)
How it was run: as §1

[11] = test system: RCC10RGB (Kidney Carcinoma)
How it was run: as §1

[12] = test system: MES-SA (Other Solid Carcinomas)
How it was run: as §1

[13] = test system: PA-TU-8902 (Pancreatic Carcinoma)
How it was run: as §1

[14] = test system: Saos-2 (Osteosarcoma)
How it was run: as §1

[15] = test system: SNG-M (Endometrial Carcinoma)
How it was run: as §1

[16] = test system: H4 (Low Grade Glioma)
How it was run: as §1

[17] = test system: HCC-827 (Lung Adenocarcinoma)
How it was run: as §1

[18] = test system: BICR78 (Oral Cavity Carcinoma)
How it was run: as §1

[19] = test system: JHH-6 (Hepatocellular Carcinoma)
How it was run: as §1

SMILES | Bliss excess [1] | Bliss excess [2] | Bliss excess [3] | Bliss excess [4] | Bliss excess [5] | Bliss excess [6] | Bliss excess [7] | Bliss excess [8] | Bliss excess [9] | Bliss excess [10] | Bliss excess [11] | Bliss excess [12] | Bliss excess [13] | Bliss excess [14] | Bliss excess [15] | Bliss excess [16] | Bliss excess [17] | Bliss excess [18] | Bliss excess [19]
CN(C)CCCOc1ccc(-c2ccc3ncc4c(c3c2)n(C2CCOCC2)c(=O)n4C)cn1 [AZD0156] + O=C(c1cc(Cc2n[nH]c(=O)c3ccccc23)ccc1F)N1CCN(C(=O)C2CC2)CC1 [Olaparib] (first compound max 3 µM, partner max 3 µM) | 0.0887 | 0.0638 | -0.0026 | 0.211 | -0.0491 | 0.0265 | -0.0165 | 0.0468 | 0.0378 | 0.129 | -0.0356 | 0.142 | -0.0456 | 0.0334 | -0.0267 | 0.179 | -0.0328 | -0.0507 | -0.019
C=CCn1c(=O)c2cnc(Nc3ccc(N4CCN(C)CC4)cc3)nc2n1-c1cccc(C(C)(C)O)n1 [AZD1775] + C1CN(CCC1(C(=O)N[C@@H](CCO)C2=CC=C(C=C2)Cl)N)C3=NC=NC4=C3C=CN4 [Capivasertib] (first compound max 3 µM, partner max 3 µM) | 0.0076 | – | -0.0004 | -0.0709 | -0.059 | -0.0938 | -0.0344 | -0.0475 | -0.0099 | 0.0051 | -0.0144 | – | -0.0609 | -0.0459 | -0.0575 | -0.0472 | 0.0073 | -0.0822 | -0.0294
COc1nnc2ccc(N3CCC(c4ccc(OCCN5CCN(C)C(=O)[C@H]5C)cc4)CC3)nn12 [AZD5153] + C=CCn1c(=O)c2cnc(Nc3ccc(N4CCN(C)CC4)cc3)nc2n1-c1cccc(C(C)(C)O)n1 [AZD1775] (first compound max 1 µM, partner max 1 µM) | -0.0364 | -0.142 | -0.0138 | -0.0085 | -0.0312 | -0.0842 | -0.0342 | -0.04 | -0.0521 | -0.0367 | 0.0177 | -0.0334 | 0.0421 | -0.0011 | 0.0898 | -0.0056 | 0.0237 | -0.0302 | -0.048
COc1nnc2ccc(N3CCC(c4ccc(OCCN5CCN(C)C(=O)[C@H]5C)cc4)CC3)nn12 [AZD5153] + CC1(C)CCC(CN2CCN(c3ccc(C(=O)NS(=O)(=O)c4ccc(NCC5CCOCC5)c([N+](=O)[O-])c4)c(Oc4cnc5[nH]ccc5c4)c3)CC2)=C(c2ccc(Cl)cc2)C1 [Venetoclax] (first compound max 1 µM, 7x7, partner max 1 µM) | 0.0051 | -0.0277 | -0.0257 | 0.0805 | 0.0777 | -0.0496 | -0.0576 | -0.0887 | -0.0363 | -0.0614 | -0.0296 | -0.06 | -0.0908 | -0.0304 | -0.0875 | 0.033 | -0.0498 | -0.0468 | -0.0443
COc1nnc2ccc(N3CCC(c4ccc(OCCN5CCN(C)C(=O)[C@H]5C)cc4)CC3)nn12 [AZD5153] + CCN(CCO)CCCOc1ccc2c(Nc3cc(CC(=O)Nc4cccc(F)c4)[nH]n3)ncnc2c1 [AZD2811] (first compound max 1 µM, 7x7, partner max 1 µM) | -0.0225 | -0.151 | -0.0154 | -0.019 | -0.0295 | -0.0579 | -0.0436 | -0.0658 | -0.0466 | -0.0384 | -0.133 | -0.0028 | -0.0246 | -0.0809 | -0.0158 | -0.0269 | -0.0513 | -0.0537 | -0.0683
COc1nnc2ccc(N3CCC(c4ccc(OCCN5CCN(C)C(=O)[C@H]5C)cc4)CC3)nn12 [AZD5153] + C[C@@H]1COCCN1C2=NC(=NC(=C2)C3(CC3)[S@](=N)(=O)C)C4=C5C=CNC5=NC=C4 [AZD6738] (first compound max 1 µM, 7x7, partner max 10 µM) | -0.0324 | -0.13 | 0.0551 | -0.0467 | 0.0103 | -0.0687 | 0.0128 | -0.0386 | -0.0059 | -0.0049 | 0.0638 | 0.0781 | 0.0565 | 0.0391 | -0.0014 | -0.0081 | 0.08 | 0.0056 | -0.0111
COc1nnc2ccc(N3CCC(c4ccc(OCCN5CCN(C)C(=O)[C@H]5C)cc4)CC3)nn12 [AZD5153] + Cc1c2c(nn1C)CSCc1cc(n(C)n1)CSc1cc(c3ccccc3c1)OCCCc1c(C(=O)O)n(C)c3c-2c(Cl)ccc13 [AZD5991] (first compound max 1 µM, 7x7, partner max 1 µM) | 0.0355 | -0.119 | -0.0467 | 0.0182 | -0.0016 | -0.0316 | -0.0234 | -0.0363 | -0.0698 | -0.0049 | -0.0843 | -0.0125 | -0.0316 | 0.0143 | -0.0033 | -0.0287 | -0.0225 | -0.027 | -0.0727
COc1nnc2ccc(N3CCC(c4ccc(OCCN5CCN(C)C(=O)[C@H]5C)cc4)CC3)nn12 [AZD5153] + Cn1cnc2c(F)c(Nc3ccc(Br)cc3Cl)c(C(=O)NOCCO)cc21 [Selumetinib] (first compound max 1 µM, 7x7, partner max 10 µM) | 0.0443 | -0.0385 | -0.0096 | -0.0365 | 0.0933 | -0.0383 | -0.019 | -0.044 | -0.0304 | -0.029 | -0.114 | 0.0199 | -0.0869 | -0.0452 | 0.0042 | -0.0184 | -0.0543 | -0.0454 | 0.0053
NC1(C(=O)N[C@@H](CCO)c2ccc(Cl)cc2)CCN(c2ncnc3[nH]ccc23)CC1 [Capivasertib] + CC(=O)c1c(C)c2cnc(Nc3ccc(N4CCNCC4)cn3)nc2n(C2CCCC2)c1=O [Palbociclib] (first compound max 10 µM, 7x7, partner max 10 µM) | 0.0378 | -0.024 | -0.0334 | 0.0205 | -0.0307 | -0.0344 | -0.0502 | -0.0208 | -0.0183 | 0.01 | -0.0368 | -0.0017 | -0.0606 | 0.0005 | -0.0601 | 0.0014 | -0.034 | -0.0093 | -0.0503
NC1(C(=O)N[C@@H](CCO)c2ccc(Cl)cc2)CCN(c2ncnc3[nH]ccc23)CC1 [Capivasertib] + CC(C)n1c(=O)n(C)c2cnc3cc(F)c(-c4ccc(OCCCN5CCCCC5)nc4)cc3c21 [AZD1390] (first compound max 10 µM, 7x7, partner max 0.3 µM) | -0.0537 | -0.0671 | -0.062 | 0.0106 | -0.0207 | -0.0228 | -0.0849 | -0.116 | -0.0965 | -0.0263 | -0.0676 | -0.0275 | -0.0859 | -0.0063 | -0.0484 | -0.0638 | -0.0793 | -0.0552 | -0.0908
NC1(C(=O)N[C@@H](CCO)c2ccc(Cl)cc2)CCN(c2ncnc3[nH]ccc23)CC1 [Capivasertib] + CCN(CCO)CCCOc1ccc2c(Nc3cc(CC(=O)Nc4cccc(F)c4)[nH]n3)ncnc2c1 [AZD2811] (first compound max 10 µM, 7x7, partner max 1 µM) | -0.0085 | -0.0608 | -0.0053 | 0.0415 | 0.0563 | 0.002 | -0.0524 | -0.0351 | -0.0079 | 0.0513 | -0.0838 | 0.0165 | -0.0381 | -0.0757 | -0.012 | -0.0124 | -0.0428 | -0.0092 | -0.0301
NC1(C(=O)N[C@@H](CCO)c2ccc(Cl)cc2)CCN(c2ncnc3[nH]ccc23)CC1 [Capivasertib] + COc1nnc2ccc(N3CCC(c4ccc(OCCN5CCN(C)C(=O)[C@H]5C)cc4)CC3)nn12 [AZD5153] (first compound max 10 µM, 7x7, partner max 1 µM) | -0.0061 | -0.102 | 0.0866 | -0.0546 | 0.0315 | 0.007 | 0.0027 | 0.0114 | 0.0178 | 0.0331 | 0.0221 | 0.0276 | -0.0841 | -0.0028 | 0.0787 | -0.0057 | 0.0472 | 0.0135 | -0.0365
NC1(C(=O)N[C@@H](CCO)c2ccc(Cl)cc2)CCN(c2ncnc3[nH]ccc23)CC1 [Capivasertib] + C[C@@H]1COCCN1C2=NC(=NC(=C2)C3(CC3)[S@](=N)(=O)C)C4=C5C=CNC5=NC=C4 [AZD6738] (first compound max 10 µM, 7x7, partner max 10 µM) | -0.0579 | -0.0936 | -0.0546 | -0.0088 | 0.0147 | -0.0249 | -0.0564 | -0.109 | -0.0106 | -0.0432 | -0.134 | -0.0719 | 0.0247 | -0.0717 | -0.0984 | -0.0667 | -0.0421 | 0.0163 | -0.0229
CS(=O)(=O)CCNCc1ccc(-c2ccc3ncnc(Nc4ccc(OCc5cccc(F)c5)c(Cl)c4)c3c2)o1 [Lapatinib] + Cn1cnc2c(F)c(Nc3ccc(Br)cc3Cl)c(C(=O)NOCCO)cc21 [Selumetinib] (first compound max 10 µM, 7x7, partner max 10 µM) | -0.0346 | 0.0683 | – | 0.0044 | -0.0654 | 0.0147 | – | – | – | -0.0864 | – | – | – | 0.0251 | -0.071 | -0.0159 | – | -0.0343 | –
CS(=O)(=O)CCNCc1ccc(-c2ccc3ncnc(Nc4ccc(OCc5cccc(F)c5)c(Cl)c4)c3c2)o1 [Lapatinib] + NC1(c2ccc(-c3nc4ccn5c(=O)[nH]nc5c4cc3-c3ccccc3)cc2)CCC1 [MK-2206] (first compound max 10 µM, 7x7, partner max 10 µM) | 0.0427 | 0.0539 | – | 0.0058 | -0.0408 | -0.0321 | -0.0508 | -0.0165 | – | -0.0347 | – | – | -0.0237 | -0.0026 | 0.0254 | 0.0054 | – | 0.0068 | –
Cc1nc(-c2cn3c(n2)-c2ccc(-c4cnn(C(C)(C)C(N)=O)c4)cc2OCC3)n(C(C)C)n1 [Taselisib] + O=C(Nc1ccc2[nH]nc(-c3ccncc3)c2c1)[C@@H]1CCN(CC(=O)N2CCN(c3ccc(-c4ncccn4)cc3)CC2)C1 [SCH772984] (first compound max 10 µM, 7x7, partner max 5 µM) | 0.141 | 0.0524 | – | 0.0062 | 0.0839 | -0.0084 | – | – | – | 0.138 | – | – | – | 0.0665 | -0.0211 | -0.0007 | – | -0.011 | –
